Assay results published in publication PMC12035797, “Peptidomimetics Activating the Proteasome: A New Perspective for Parkinson’s Treatment” (Journal of Medicinal Chemistry, 2025).
“Also recorded” adds a separate entry of the source. Where a SMILES comes first, the peptide text is derived from it. [ ]: non-standard residue; d: D form. N(4-MeOBn)Gly = COc1ccc(CNCC(=O)O)cc1; NMeR = CN[C@@H](CCCNC(=N)N)C(=O)O; Gly(N-CH2CH2OH) = O=C(O)CNCCO; NMeS = CN[C@@H](CO)C(=O)O; Nlys = NCCCCNCC(=O)O

Key:
[1] = test system: T1, human 20S proteasome, ChT-L peptidase; assay: Chymotrypsin-like (ChT-L) activity of h20S probed with Suc-LLVY-AMC; format: biochemical; details: 100 μM Suc-LLVY-AMC; for ChT-L stimulating capacity, Suc-LLVY-AMC: whole concentration range
T1 construct: human proteasome isolated from erythrocytes; from tissue; host or cells: human erythrocytes
Protocol: (§1) To assess the influence of substitutions increasing proteolytic stability on the modulators’ capacity to stimulate chymotrypsin-like, trypsin-like, and caspase-like activity of h20S, we used classic fluorogenic substrates: Suc-LLVY-AMC, Boc-LRR-AMC, and Z-LLE-AMC, respectively.
(§2) The effect of all synthesized peptidomimetics on the catalytic activity of the proteasome was tested using a human proteasome isolated from erythrocytes. Suc-LLVY-AMC, Boc-LRR-AMC, and Z-LLE-AMC fluorogenic substrates (Bachem, Bubendorf, Switzerland) were used for assessment of the chymotrypsin-, trypsin-, and caspase-like activities, respectively. A homemade FRET-type substrate Dabcyl-EDANS (Lys(Dabcyl)-[…]EDANS)-Gly)[26] was used as an additional probe. Stock solutions of the substrates and tested peptidomimetics were prepared in dimethyl sulfoxide (DMSO), ensuring that the final concentration of DMSO in all samples remained consistent at 2%. The small fluorogenic substrates were used at a final concentration of 100 μM, while Dabcyl-EDANS was prepared at a final concentration of 15 μM. […] Activity tests were conducted in 96-well plates using 50 mM Tris/HCl, pH 8.0, as an assay buffer. The final concentration of h20S proteasome was adjusted to 0.002 mg/mL (2.8 nM). The fluorescence of released aminomethylcoumarin (AMC) was monitored at 460 nm (λex was 380 nm), while the hydrolysis of Dabcyl-EDANS was detected by measuring emission at 493 nm (λex was set at 335 nm). Fluorescence measurements were taken continuously every 2 min over a 60 min period at 37 °C using a Tecan Infinite M200Pro spectrofluorometer (Tecan Trading AG, Männedorf, Switzerland). All activity assays were performed in at least three independent replicates. The relative activity was calculated in relation to the catalytic activity of the vehicle (DMSO)-treated latent proteasome, which was regarded as 100%. Statistical analysis was performed using the one-way ANOVA followed by Tukey’s post-hoc test. P-value <0.05 was considered statistically significant.

human 20S proteasome = test system: T2, human 20S proteasome; assay: h20S proteasome activity probed with FRET-type Dabcyl-EDANS substrate; format: biochemical; details: for h20S stimulating capacity, Dabcyl-EDANS: 1.0-50 μM modulator
T2 construct: human proteasome isolated from erythrocytes; from tissue; host or cells: human erythrocytes
Excerpt: (§3) To assess the influence of substitutions increasing proteolytic stability on the modulators’ capacity to stimulate chymotrypsin-like, trypsin-like, and caspase-like activity of h20S, we used classic fluorogenic substrates: Suc-LLVY-AMC, Boc-LRR-AMC, and Z-LLE-AMC, respectively. To confirm the observed stimulating capacity, we also conducted assays using a FRET-type reporter peptide with a sequence consisting of 11 residues (Lys(Dabcyl)-[…]EDANS)-Gly).[27] As we checked, the activated 20S hydrolyzed this substrate after more than one residue (Lys, Gly, and Glu), which makes it a probe better reflecting the concerted action of the proteasome’s three peptidases. […] The discrepancy in the level of activation was mainly due to the greater sensitivity of the FRET substrate, as it is not digested, unlike the AMC-based probes, by the latent proteasome, which results in greater differences in fluorescence relative to the controls. […] The ability to affect individual peptidases of the proteasome in different ways is most likely related to the allosteric mechanism of action of the modulators. Binding at a site distant from the catalytic compartment may result in greater diversity in the pathways by which the signal reaches active sites and differential effects of that signal on each peptidase.
(§4) The effect of all synthesized peptidomimetics on the catalytic activity of the proteasome was tested using a human proteasome isolated from erythrocytes. Suc-LLVY-AMC, Boc-LRR-AMC, and Z-LLE-AMC fluorogenic substrates (Bachem, Bubendorf, Switzerland) were used for assessment of the chymotrypsin-, trypsin-, and caspase-like activities, respectively. A homemade FRET-type substrate Dabcyl-EDANS (Lys(Dabcyl)-[…]EDANS)-Gly)[26] was used as an additional probe. Stock solutions of the substrates and tested peptidomimetics were prepared in dimethyl sulfoxide (DMSO), ensuring that the final concentration of DMSO in all samples remained consistent at 2%. The small fluorogenic substrates were used at a final concentration of 100 μM, while Dabcyl-EDANS was prepared at a final concentration of 15 μM. Modulators were tested in concentrations ranging from 1.0 to 50 μM, with compounds containing TAT or 6R sequences tested at lower concentrations ranging from 0.5 to 10 μM. Activity tests were conducted in 96-well plates using 50 mM Tris/HCl, pH 8.0, as an assay buffer. The final concentration of h20S proteasome was adjusted to 0.002 mg/mL (2.8 nM). The fluorescence of released aminomethylcoumarin (AMC) was monitored at 460 nm (λex was 380 nm), while the hydrolysis of Dabcyl-EDANS was detected by measuring emission at 493 nm (λex was set at 335 nm). Fluorescence measurements were taken continuously every 2 min over a 60 min period at 37 °C using a Tecan Infinite M200Pro spectrofluorometer (Tecan Trading AG, Männedorf, Switzerland). All activity assays were performed in at least three independent replicates. The relative activity was calculated in relation to the catalytic activity of the vehicle (DMSO)-treated latent proteasome, which was regarded as 100%. Statistical analysis was performed using the one-way ANOVA followed by Tukey’s post-hoc test. P-value <0.05 was considered statistically significant.

[2] = Stability of the compounds in human plasma (UHPLC); format: in vitro ADME; details: 37 °C, 30 min
Protocol: We tested the proteolytic stability of the obtained peptidomimetics by incubating them with human plasma at 37 °C for 30 min. The process was monitored by UHPLC. Using mass spectrometry, the proteolytic degradation sites were determined (Figure 1B). […] Apparently, the modifications made the modulators considerably less susceptible to the action of proteases present in the plasma.
The modulators were incubated with human serum (Merck, Darmstadt, Germany) at 37 °C for 30 min. The compounds were dissolved in water, and their final concentration was 200 μM. Every 5 min, samples were taken from the incubated solution, and the reaction was stopped with 6% trichloroacetic acid (TCA) added to the sample in a 1:1 (v/v) ratio. Next, the samples were centrifuged for 10 min at 4 °C and 14,000 rpm. The supernatant was subjected to HPLC and MS analyses. The progress of proteolytic degradation of modulators was monitored using a UHPLC chromatograph (Shimadzu, Tokyo, Japan) with a Kinetex analytical column 100 mm × 2.1 mm, 2.6 μm, 100 Å (Phenomenex, Torrance, CA, USA) with UV detection at a wavelength of 223 nm. The degree of degradation was estimated based on the area of the peaks corresponding to the starting materials. In order to identify peptide fragments resulting from degradation, analysis was performed using an Autoflex maX MALDI TOF mass spectrometer (Bruker, […]). All experiments were performed in at least three independent replicates.

[3] = test system: T3, human 20S proteasome, C-L peptidase; assay: Caspase-like (C-L) activity of h20S probed with Z-LLE-AMC; format: biochemical; details: 100 μM Z-LLE-AMC
T3 construct: human proteasome isolated from erythrocytes; from tissue; host or cells: human erythrocytes
Excerpt: as §3, §4

[4] = test system: T4, human 20S proteasome, T-L peptidase; assay: Trypsin-like (T-L) activity of h20S probed with Boc-LRR-AMC; format: biochemical; details: 100 μM Boc-LRR-AMC
T4 construct: human proteasome isolated from erythrocytes; from tissue; host or cells: human erythrocytes
Protocol: as §1, §2

[5] = PAMPA, blood–brain barrier mimic; format: in vitro ADME; details: 500 μM, 37 °C, 22 h
Excerpt: In neurodegenerative diseases, proteins prone to aggregation accumulate in the neuronal cells. Therefore, a necessary feature of potential drugs is not only permeability across the cell membrane but also the ability to cross the blood-brain barrier (BBB). To preliminarily investigate this feature, we performed parallel artificial membrane permeation assays (PAMPA) including as positive controls propranolol and Tat47-57, known for their ability to penetrate the blood-brain barrier. Dopamine hydrobromide was included as a negative control. For comparison, we also tested compound 1a, which is devoid of a CPP sequence. […] The PAMPA was performed as previously described.[21] Briefly, a 2% solution of porcine brain lipid membrane (PBL; Avanti Polar Lipids Inc., Alabaster, AL, USA) in anhydrous dodecane was used as a mimic of the blood-brain barrier. Propranolol hydrochloride (Merck, Darmstadt, Germany) and Tat47-57 (synthesized in-house) served as positive controls, while dopamine hydrobromide (Merck, Darmstadt, Germany) was used as a negative control. Stock solutions of the tested compounds and controls were prepared at a concentration of 10 mM in deionized water and then diluted to 500 μM using 0.1 M PBS containing 5% DMSO. The donor-acceptor plate assembly was incubated at 37 °C while being shaken at 250 rpm for 22 h. Absorbance at 290 nm was measured for propranolol using an Infinite […] plate reader (Infinite […] plate reader, Tecan). For the other samples, fluorescence measurements were performed after the compounds were reacted with 0.02% fluorescamine. The rate of passive diffusion was calculated as the linear velocity of permeation (Pe). The data represent an average of three independent biological replicates.

SMILES	ChT-L stimulating capacity, Suc-LLVY-AMC [1]	h20S stimulating capacity, Dabcyl-EDANS (human 20S proteasome; 15 μM Dabcyl-EDANS)	proteolytic stability in human plasma [2]	C-L stimulating capacity, Z-LLE-AMC [3]	T-L stimulating capacity, Boc-LRR-AMC [4]	stimulation of h20S activity, Suc-LLVY-AMC probe ([1]; level reached vs latent proteasome) [fold]	stimulation of h20S activity, Dabcyl-EDANS probe (human 20S proteasome; 15 μM Dabcyl-EDANS, level reached vs latent proteasome) [fold]	h20S stimulating potency, Dabcyl-EDANS (human 20S proteasome; at the lowest concentrations)	permeability across artificial BBB membrane, PAMPA [5]	remaining at 0.5 h ([2]; human, plasma, UHPLC, read-out: amount of compound remaining after incubation with human plasma) [%]
C[C@@H](O)[C@H](NC(=O)[C@H](Cc1ccccc1)NC(=O)[C@H](Cc1ccc(O)cc1)NC(=O)CNCCCCN)C(=O)NCC(=O)N[C@@H](CO)C(=O)N[C@@H](CCCCN)C(=O)N[C@@H](CC(=O)O)C(=O)N[C@@H](Cc1c[nH]c2ccccc12)C(=O)N[C@@H](CCCNC(=N)N)C(=O)N(CCO)CC(=O)N[C@@H](Cc1ccc(O)cc1)C(=O)N[C@@H](Cc1ccc(O)cc1)C(=O)N[C@@H](CO)C(=O)O [1c] (H-[Nlys]YFTGSKDWR[Gly(N-CH2CH2OH)]YYS-OH)	lower capacity of activating h20S	less strongly than 1	most stable	–	–	–	–	–	–	–
COc1ccc(CN(CC(=O)N[C@@H](CCCNC(=N)N)C(=O)N[C@@H](CCCNC(=N)N)C(=O)N[C@@H](Cc2ccc(O)cc2)C(=O)N[C@@H](Cc2ccc(O)cc2)C(=O)N[C@@H](CO)C(=O)O)C(=O)[C@H](CC(=O)O)NC(=O)[C@H](CCCCN)NC(=O)[C@H](CO)NC(=O)CNC(=O)[C@@H](NC(=O)[C@H](Cc2ccccc2)NC(=O)CN(Cc2ccc(OC)cc2)C(=O)[C@@H](N)CCCCN)[C@@H](C)O)cc1 [2f] (H-K[N(4-MeOBn)Gly]FTGSKD[N(4-MeOBn)Gly]RRYYS-OH)	least effective stimulants	least effective stimulants	most stable	weakest activators	weakest activators	–	–	–	–	–
C[C@@H](O)[C@H](NC(=O)[C@H](Cc1ccccc1)NC(=O)[C@H](Cc1ccc(O)cc1)NC(=O)CNCCCCN)C(=O)NCC(=O)N[C@@H](CO)C(=O)N[C@@H](CCCCN)C(=O)N[C@@H](CC(=O)O)C(=O)N[C@@H](Cc1c[nH]c2ccccc12)C(=O)N[C@@H](CCCNC(=N)N)C(=O)N[C@@H](CO)C(=O)N[C@@H](Cc1ccc(O)cc1)C(=O)N[C@@H](Cc1ccc(O)cc1)C(=O)N[C@@H](CO)C(=O)O [compound 1a] (H-[Nlys]YFTGSKDWRSYYS-OH)	–	did not lose their ability to effectively stimulate h20S	–	–	–	8	12	even more potent than 1	at the level of a negative control	–
C[C@@H](O)[C@H](NC(=O)[C@H](Cc1ccccc1)NC(=O)[C@H](Cc1ccc(O)cc1)NC(=O)[C@@H](N)CCCCN)C(=O)NCC(=O)N[C@@H](CO)C(=O)N[C@@H](CCCCN)C(=O)N[C@@H](CC(=O)O)C(=O)N[C@@H](Cc1c[nH]c2ccccc12)C(=O)N(C)[C@@H](CCCNC(=N)N)C(=O)N(C)[C@@H](CO)C(=O)N[C@@H](Cc1ccc(O)cc1)C(=O)N[C@@H](Cc1ccc(O)cc1)C(=O)N[C@@H](CO)C(=O)O [compound 1d] (H-KYFTGSKDW[NMeR][NMeS]YYS-OH)	lower capacity of activating h20S	reached stimulation levels equal to those of the best activators; also recorded: less strongly than 1	–	moderate activator	poor activator	–	–	–	–	< 30
C[C@@H](O)[C@H](NC(=O)[C@H](Cc1ccccc1)NC(=O)[C@H](Cc1ccc(O)cc1)NC(=O)CNCCCCN)C(=O)NCC(=O)N[C@@H](CO)C(=O)N[C@@H](CCCCN)C(=O)N[C@@H](CC(=O)O)C(=O)N[C@@H](Cc1ccc(O)cc1)C(=O)N[C@@H](CCCNC(=N)N)C(=O)N[C@@H](CCCNC(=N)N)C(=O)N[C@@H](Cc1ccc(O)cc1)C(=O)N[C@@H](Cc1ccc(O)cc1)C(=O)N[C@@H](CO)C(=O)O [compound 2a] (H-[Nlys]YFTGSKDYRRYYS-OH)	most effective h20S stimulators	most effective h20S stimulators; also recorded: effective activator	very stable	–	–	–	–	–	–	–
